# Source: patent US6620397B2, “Material and method for treating photographic effluents” (Eastman Kodak Company, priority 2001, dated 2003)
# Assay: Oxidation of cyclohexene to cyclohexanol followed by FT Raman spectroscopy
# Method: When no imogolite was present in the test the volume of imogolite was replaced by an equivalent volume of water so as to retain a constant volume. The oxidation of the cyclohexene was followed by FT (Fourier transform) Raman spectroscopy by measuring the percentage of cyclohexene converted to cyclohexanol after 48 hours. The tests were carried out at ambient temperature.
smiles,measurement,setting,value
"OO [Example 13, hydrogen peroxide]",Cyclohexene oxidized after 48 h (%),"5 g material, 20 ml cyclohexene in 80 ml methanol, ambient temperature, 48 hours",3%
same,Oxidizing property towards cyclohexene (in words),summary of Table I,weak oxidizing agent
